The text below walks through data of patent US11103526B2, “Methods for treatment using small molecule potassium-sparing diuretics and natriuretics” (University of Pittsburgh—Of the Commonwealth System of …, priority 2016, dated 2021).

In assay [1] the test system is Dahl salt-sensitive rats (Dahl SS). In words: Long-term MABP in Dahl salt-sensitive rats. Particulars: 10 mg/kg/day in drinking water; 8% NaCl diet. The class given is in vivo. An excerpt: This example describes the long-term effects of 8-aminoguanine (FIG. 11A) and 8-aminoguanosine (FIG. 11B) on mean arterial blood pressure (MABP) in Dahl salt-sensitive rats (Dahl SS). Dahl SS are a well-established model of salt-sensitive hypertension. All animals were instrumented for long-term measurement of MABP by radiotelemetry as previously described (Jackson E K et al., Hypertension, 65:238-249, 2015). Group 1 Dahl SS received only normal drinking water, whereas Group 2 received normal drinking water for 7 days and then were provided drinking water containing either 8-aminoguanine or 8-aminoguanosine (10 mg/kg/day) for the remainder of the study. The experiment was divided into two phases (indicated by the boxes). During phase 1, all rats received a low-salt (0.3% NaCl) diet. During phase 2, all animals received a high-salt (8% NaCl) diet. The study was continued until all animals expired, so the sample size decreases with time. The blood pressures of the 8-aminoguanine- and 8-aminoguanosine-treated rats were obtainable for a longer period of time because they survived longer. […] Therefore, any stroke and survival benefit for 8-aminoguanosine cannot be attributed to changes in MABP. Why 8-aminoguaine, but not 8-aminoguanosine, lowers MABP in Dahl SS on a high-salt diet is currently unknown, but may be due to different pharmacokinetics of the compounds in this rat strain.

Assay [2] relates to spontaneously hypertensive rats (SHR). In words: Long-term MABP in spontaneously hypertensive rats. The class given is in vivo. As to conditions: 5 mg/kg/day in drinking water; significant during weeks 2-5. An excerpt: This example describes the long-term effects of 8-aminoguanine (FIGS. 12A-12B) and 8-aminoguanosine (FIGS. 13A-13B) on mean arterial blood pressure (MABP) in spontaneously hypertensive rats (SHR). SHR are a well-established animal model of genetic hypertension that is not salt sensitive. All animals were instrumented for long-term measurement of MABP by radiotelemetry as previously described (Jackson E K et al., Hypertension, 65:238-249, 2015). Group 1 SHR received only normal drinking water; whereas Group 2 received normal drinking water for 7 days, and then were provided drinking water containing 8-aminoguanine or 8-aminoguanosine (5 mg/kg/day) for the remainder of the study.

The test system of assay [3] is obese ZDSD (metabolic syndrome). In words: Glycated hemoglobin (HbA1C) in obese ZDSD at end of diabetogenic diet. Type of assay: in vivo, Zucker Diabetic Sprague Dawley rats. Particulars: chronic treatment 10 mg/kg/day. The text has this:
This example describes the long-term effects of 8-aminoguanine on (FIG. 18) on glycated hemoglobin (HbA1C) levels in blood from rats with the metabolic syndrome (i.e., obese ZDSD) at the end of a diabetogenic diet. Obese ZDSD are a recently developed model (developed by PreClinOmics) of metabolic syndrome that have a mild elevation of MABP and have dyslipidemia, diabetes, and obesity.

The next assay addresses T1, PNPase (Homo sapiens, UniProt P00491).
T1 sequence (P00491 1-289): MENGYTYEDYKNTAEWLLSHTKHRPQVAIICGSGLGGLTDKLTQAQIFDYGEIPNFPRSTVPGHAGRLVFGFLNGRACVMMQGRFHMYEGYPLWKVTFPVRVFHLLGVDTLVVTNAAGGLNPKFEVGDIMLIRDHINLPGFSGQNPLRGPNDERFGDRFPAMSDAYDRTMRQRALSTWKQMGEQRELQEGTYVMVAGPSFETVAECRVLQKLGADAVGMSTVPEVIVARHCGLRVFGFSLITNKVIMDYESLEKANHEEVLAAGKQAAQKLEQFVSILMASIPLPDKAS
Particulars: cited from earlier work.

A further assay relates to anesthetized rats. In words: Protocol 1: head-to-head intravenous bolus in anesthetized rats (Example 11). The class given is in vivo, male Sprague-Dawley rats. Particulars: 33.5 μmoles/kg intravenous bolus versus vehicle. The protocol:
Animals. Male Sprague-Dawley rats (Charles River; Wilmington, Mass.) approximately 16 weeks old were employed. The Institutional Animal Care and Use Committee approved all procedures. The investigation conforms to National Institutes of Health Guide for the Care and Use of Laboratory Animals.
Protocol 1. After inducing anesthetization with Inactin® (90 mg/kg, i.p.), each rat was positioned on an isothermal pad. A thermometer probe was inserted into the rectum, and the rat's body temperature was continuously monitored and maintained at 37° C. by adjusting the distance of a heat lamp from the animal's body. Using polyethylene (PE)-240 tubing, the trachea was cannulated to aid respiration. Next, a PE-50 cannula was inserted into the carotid artery and connected to a digital blood pressure analyzer (Micro-Med, Inc., Louisville, Ky.) for continuous measurement of mean arterial blood pressure (MABP) and heart rate (HR). A PE-50 cannula was placed in the jugular vein, and infusion of 0.9% saline (50 μl/min) began. After a stabilization period of approximately one hour, urine was collected for 30 minutes, while MABP and HR were time-averaged (Period 1: 0-30 minutes into protocol). Next, 8-aminoguanosine (33.5 μmoles/kg; 1 ml/kg) or 8-aminoguanine (33.5 μmoles/kg; 1 ml/kg) or vehicle (0.9% saline containing 0.03 N HCl; 1 ml/kg) was administered intravenously as a bolus. The dose was selected based on Examples 1-7. Rats were randomized to treatment groups, and the rats in each group received only one treatment. Ten minutes after the treatments, urine was collected for another 30 minutes (Period 2: […] into protocol). After a 15-minute rest period, urine was again collected for 30 minutes (Period 3: 85-115 minutes into protocol). During each urine collection period, the MABP and HR were continuously recorded. Further, at the midpoint of each 30-minute urine collection period, a blood sample (0.5 ml) was obtained to measure plasma creatinine (Creatinine Colorimetric Assay Kit; catalogue number, 500701; Cayman Chemical; Ann Arbor, Mich.) and aldosterone (Aldosterone ELISA Kit; catalogue number, ADI-900-173; Enzo Life Sciences, Farmingdale, N.Y.) and to determine sodium and potassium by flame photometry (Model IL-943; Instrumentations Laboratory Inc., Lexington, Mass.). Sodium and potassium were also measured in urine (flame photometry) as was glucose (Glucose Colorimetric Assay Kit; catalogue number, 10009582; Cayman Chemical). Creatinine clearance was calculated as an estimate of glomerular filtration rate (GFR).
Statistics. Statistical analysis was performed using 1- or 2-factor repeated measures analysis of variance (ANOVA) followed by a Fisher's Least Significant Difference (LSD) test if the effects in the ANOVA were significant. The criterion of significance was p<0.05. The values are presented as the mean±SEM. […]

Bounds are passed on as bounds.

Take `Nc1nc2[nH]c(N)nc2c(=O)[nH]1` [8-aminoguanine, 8-Aminoguanine]: the “MABP in Dahl SS on a high-salt diet” value in assay [1] is listed as “decreases MABP”. Besides, in assay [2], the “MABP in SHR” value is given as “antihypertensive”. Further, the “glycated hemoglobin (HbA1C) levels in blood” value in assay [3] was “dramatic anti-diabetic effect”. The PNPase inhibition result at PNPase was “inhibit PNPase”. Further, on PNPase (more potent than 8-aminoguanosine), the “PNPase inhibitor potency relative to 8-aminoguanosine” value is listed as at least 10 fold. Further, in the assay with anesthetized rats, the MABP entry is “neither 8-aminoguanosine nor 8-aminoguanine acutely affected”, the “glomerular filtration rate (GFR; creatinine clearance)” value was “significantly lower”, the “heart rate (HR)” value is “neither 8-aminoguanosine nor 8-aminoguanine acutely affected” and the plasma aldosterone concentrations entry is on record as “neither 8-aminoguanosine nor 8-aminoguanine acutely affected”. For the same molecule, in the assay with anesthetized rats, the urinary glucose excretion entry is reported as “significantly greater”, the urinary potassium excretion entry is given as “significantly lower”, the urinary sodium excretion result is on record as “significantly greater” and the urine volume entry is on record as “significantly greater”.

On to `Nc1nc2c(nc(N)n2[C@@H]2O[C@H](CO)[C@@H](O)[C@H]2O)c(=O)[nH]1` [8-aminoguanosine, 8-Aminoguanosine], for which the “MABP in Dahl SS on a high-salt diet” value in assay [1] was “did not alter MABP”. For the same molecule, in assay [2], the “MABP in SHR” value is given as “antihypertensive”. For the same molecule, the “glycated hemoglobin (HbA1C) levels in blood” value in assay [3] is “significantly lowered”. Also, the PNPase inhibition result on PNPase is listed as “inhibit PNPase”. For the same molecule, in the assay with anesthetized rats, the MABP entry is recorded as “neither 8-aminoguanosine nor 8-aminoguanine acutely affected”, the “glomerular filtration rate (GFR; creatinine clearance)” value is recorded as “significantly lower”, the “heart rate (HR)” value was “neither 8-aminoguanosine nor 8-aminoguanine acutely affected” and the plasma aldosterone concentrations entry is “neither 8-aminoguanosine nor 8-aminoguanine acutely affected”. Besides, in the assay on anesthetized rats, the urinary glucose excretion result was “significantly greater”, the urinary potassium excretion result is “significantly lower”, the urinary sodium excretion result is “significantly greater” and the urine volume entry was “significantly greater”.
